These results are taken from patent US6727276B2, “Epothilone derivatives for the treatment of refractory tumors” (Bristol-Myers Squibb Company, priority 2001, dated 2004).

Like-named read-outs stand apart in the source and are kept apart here.

One data set can be described thus: in vivo. Conditions: Balb/c nu/nu, mouse.
Another data set deals with Pat-21 breast carcinoma. Further details: species or system nude mice. Conditions: mouse, in vivo.
A short description of data set [1]: In vivo antitumor testing, Pat-26 xenograft. The note with it: Balb/c nu/nu, mouse, in vivo, iv.
For data set [2], the system named is Pat-26 human pancreatic carcinoma. In words: In vivo antitumor testing, Pat-26 xenograft.
The subject of data set [3] is Pat-7 human ovarian carcinoma.
The nature of data set [4]: In vivo antitumor testing, HCT116/VM46 xenograft. The note with it: Balb/c nu/nu, mouse, in vivo, iv.
In data set [5] the test system is HCT116/VM46 human colon carcinoma xenograft. Put plainly: In vivo antitumor testing, HCT116/VM46 xenograft.
For data set [6], the system named is tubulin isolated from calf brain. The format is biochemical.
In data set [7] the test system is panel of tumor cell lines. Put plainly: Cytotoxicity assay (tetrazolium-based colorimetric), panel of tumor cell lines. Conditions: 72 h, read-out: IC50 (median cytotoxic concentration).
Another data set relates to HCT116/VM46 cells. The format is cell-based, human.
In data set [8] the test system is A2780Tax ovarian carcinoma xenograft (mutated tubulin). Further details: species or system nude mice. Conditions: mouse, in vivo.
Where [9] appears, read: paclitaxel, results obtained in separate studies.

With `C/C(=C\c1csc(CN)n1)[C@@H]1C[C@@H]2O[C@]2(C)CCC[C@H](C)[C@H](O)[C@@H](C)C(=O)C(C)(C)[C@@H](O)CC(=O)O1` (relative stereo) [BMS-310705, [1S-[1R*,3R*(E),7R*,10S*,11R*,12R*,16S*]]-7,11-dihydroxy-8,8,10,12,16-pentamethyl-3-[1-methyl-2-(2-aminomethyl-4-thiazolyl)ethenyl]-4,17-dioxabicyclo[14.1.0]heptadecane-5,9-dione], the MTD is 8 mg/kg in the data set “in vivo” (iv); 90 mg/kg in “in vivo” (po, pH 8); 10 mg/kg in data set [1]; 7.5 mg/kg in data set [4]. Besides, the “LCK (gross log cell kill)” value in the data set on Pat-21 breast carcinoma is recorded as greater than 4.1; in [2] (BMS-310705, IV, q4dx3 at OD 10 mg/kg, Expt. 968), 1.2; in [3] (BMS-310705, IV, q4dx3 at OD 8 mg/kg, Expt. 14), 2.4; in data set [5] (BMS-310705, IV, q4dx3 at OD 7.5 mg/kg, Expt. 40), 1.5. In addition, the “water solubility (in words)” value in the data set “Water solubility” is recorded as “highly water-soluble”. Further, the “gross log cell kill (LCK)” value in [3] (BMS-310705 (PO), PO, q4dx3 at OD/MTD 90 mg/kg, Expt. 18) is 2.4. Also, the “antitumor activity given orally compared with IV administration (in words)” value in data set [3] (PO vs IV) is “equivalent to that produced by IV drug administration”. Further, the “oral antitumor activity (in words)” value in data set [3] (PO, every 4 days x 3 schedule, FIG. 4) was “highly active orally”. In addition, the “Polymerization Potency, EC0.01” value in [6] was found to be 7400 nM. Also, the “Ratio of Polymerization Potency of Analog/Paclitaxel” value (shortened to “Ratio … of Analog/Paclitaxel”) in data set [6] worked out at 1.7. Besides, the “tubulin polymerization potency relative to paclitaxel (fold more potent)” value in data set [6] is given as “about 2.5 fold”. The IC50 in data set [7] was in the range of 0.9 to 3.5 nM.
Take `C/C(=C\c1csc(C)n1)[C@@H]1C[C@@H]2O[C@@H]2CCC[C@H](C)[C@H](O)[C@@H](C)C(=O)C(C)(C)[C@@H](O)CC(=O)O1` [BMS-212188, Epothilone A]: in data set [6], the “Ratio … of Analog/Paclitaxel” value was 0.4. Also, the “Polymerization Potency, EC0.01” value in data set [6] (concentration inducing initial slope of 0.01 OD/minute) amounted to 2000 nM.
With `CC(=O)O[C@H]1C(=O)[C@@]2(C)[C@H]([C@H](OC(=O)c3ccccc3)[C@]3(O)C[C@H](OC(=O)[C@H](O)[C@@H](NC(=O)c4ccccc4)c4ccccc4)C(C)=C1C3(C)C)[C@]1(OC(C)=O)CO[C@@H]1C[C@@H]2O` [Paclitaxel, paclitaxel, reference compound], the “LCK (gross log cell kill)” value in the data set on Pat-21 breast carcinoma turned out to be 0.3; in [2] (setting [9]), 0.4; in data set [3] (setting [9]), 0.8; in data set [5] (setting [9]) it was 0.55; in data set [8], 0.8. Besides, the “ratio of concentration (R/S or resistance ratio) to inhibit cell growth by 50%” value in the data set on HCT116/VM46 cells was found to be 155 fold.
As for Epothilone B [BMS-205535], in data set [6], the “Polymerization Potency, EC0.01” value stood at 1800 nM and the “Ratio … of Analog/Paclitaxel” value is on record as 0.3.
